According to paper PMC5453931, “Cathelicidin-trypsin inhibitor loop conjugate represents a promising antibiotic candidate with protease stability” (Scientific Reports, 2017):
Converted amounts (≈) assume the structure as drawn. Like-named read-outs stand apart in the source and are kept apart here.

Tests used:
E. coli 08040726 [1] = type: cell-based; conditions: Gram-negative, two-fold broth microdilution, MH broth, 37 °C, 18 h, mean of three independent experiments in duplicates
Description: (§1) A two-fold broth microdilution method described in our previous paper was used to determine the antimicrobial activities of parental and hybrid peptides. More than 30 strains including Gram-negative bacteria, Gram-positive bacteria and fungi were used in the current assay, in which the standard strains were stored in our lab and the clinical strains were collected from local hospitals. Briefly, bacteria were incubated in Mueller-Hinton broth (MH broth) at 37 °C to exponential phase and diluted to 10^6 CFU/mL. A serial dilution of peptide sample were prepared in 96-well microtiter plates (50 μL) and mixed with equal volume of microbial inoculums (50 μL). The plate was slowly shaken in the microbial incubator, and measured at A595 after incubation at 37 °C for 18 h. The minimal concentrations at which no microbial growth occurred were recorded as MIC (minimal inhibitory concentration) values. The traditional antibiotic ampicillin was used as positive control. The results are shown in an average of the MICs obtained from three independent experiments.

E. coli 08040726 [2] = experiment: MIC, two-fold broth microdilution (second listing of the strain number); type: cell-based; conditions: Gram-negative, MH broth, 37 °C, 18 h, mean of three independent experiments in duplicates
Description: as §1

Aeromonas sobria = experiment: microbe, parasite or virus in culture; type: cell-based; conditions: Aeromonas sobria, 18 h, read-out: MIC Aeromonas sobria
Description: as §1

Aeromonas veronii = experiment: microbe, parasite or virus in culture; type: cell-based; conditions: Aeromonas veronii, 18 h, read-out: MIC Aeromonas veronii
Description: as §1

[3] = tested on: Bacillus subtilis 08042313; experiment: microbe, parasite or virus in culture; type: cell-based; conditions: Bacillus subtilis, 08042313, 18 h, read-out: MIC Bacillus subtilis 08042313
Description: as §1

[4] = tested on: Candida albicans 08030102; experiment: microbe, parasite or virus in culture; type: cell-based; conditions: Candida albicans, 08030102, 18 h, read-out: MIC Candida albicans 08030102
Description: as §1

Candida glabrata 08A802 = experiment: microbe, parasite or virus in culture; type: cell-based; conditions: Nakaseomyces glabratus, 08A802, 18 h, read-out: MIC Candida glabrata 08A802
Description: as §1

E. Coli 08032823 = experiment: microbe, parasite or virus in culture; type: cell-based; conditions: Escherichia coli, 18 h, read-out: MIC E. Coli 08032823
Description: as §1

Edwardsiella tarda = experiment: microbe, parasite or virus in culture; type: cell-based; conditions: Edwardsiella tarda, 18 h, read-out: MIC Edwardsiella tarda
Description: as §1

[5] = tested on: Enterococcus faecium 08052315; experiment: microbe, parasite or virus in culture; type: cell-based; conditions: Enterococcus faecium, 08052315, 18 h, read-out: MIC Enterococcus faecium 08052315
Description: as §1

[6] = tested on: Escherichia coli ATCC25922; experiment: microbe, parasite or virus in culture; type: cell-based; conditions: Escherichia coli, ATCC25922, 18 h, read-out: MIC Escherichia coli ATCC25922
Description: as §1

K. Pneumoniae 08031012 = experiment: microbe, parasite or virus in culture; type: cell-based; conditions: Klebsiella pneumoniae, 18 h, read-out: MIC K. Pneumoniae 08031012
Description: as §1

K. Pneumoniae 08040202 = experiment: microbe, parasite or virus in culture; type: cell-based; conditions: Klebsiella pneumoniae, 18 h, read-out: MIC K. Pneumoniae 08040202
Description: as §1

[7] = tested on: Nocardia asteroides 08052412; experiment: microbe, parasite or virus in culture; type: cell-based; conditions: Nocardia asteroides, 08052412, 18 h, read-out: MIC Nocardia asteroides 08052412
Description: as §1

P. Aeruginosa 08021015 = experiment: microbe, parasite or virus in culture; type: cell-based; conditions: Pseudomonas aeruginosa, 18 h, read-out: MIC P. Aeruginosa 08021015
Description: as §1

Proteus mirabilis 1376 = experiment: microbe, parasite or virus in culture; type: cell-based; conditions: Proteus mirabilis, 1376, 18 h, read-out: MIC Proteus mirabilis 1376
Description: as §1

S. Aureus 08032615 = experiment: microbe, parasite or virus in culture; type: cell-based; conditions: Staphylococcus aureus, 18 h, read-out: MIC S. Aureus 08032615
Description: as §1

S. Aureus 08032706 = experiment: microbe, parasite or virus in culture; type: cell-based; conditions: Staphylococcus aureus, 18 h, read-out: MIC S. Aureus 08032706
Description: as §1

S. Aureus 08032810 = experiment: microbe, parasite or virus in culture; type: cell-based; conditions: Staphylococcus aureus, 18 h, read-out: MIC S. Aureus 08032810
Description: as §1

S. Maltophilia 090223 = experiment: microbe, parasite or virus in culture; type: cell-based; conditions: Stenotrophomonas maltophilia, 18 h, read-out: MIC S. Maltophilia 090223
Description: as §1

[8] = tested on: Shigella dysenteriae 0804203; experiment: microbe, parasite or virus in culture; type: cell-based; conditions: Shigella dysenteriae, 0804203, 18 h, read-out: MIC Shigella dysenteriae 0804203
Description: as §1

Vibrio brasiiensis = experiment: microbe, parasite or virus in culture; type: cell-based; conditions: Vibrio, 18 h, read-out: MIC Vibrio brasiiensis
Description: as §1

Vibrio cholerae = experiment: microbe, parasite or virus in culture; type: cell-based; conditions: Vibrio cholerae, 18 h, read-out: MIC Vibrio cholerae
Description: as §1

Vibrio harveyi = experiment: microbe, parasite or virus in culture; type: cell-based; conditions: Vibrio harveyi, 18 h, read-out: MIC Vibrio harveyi
Description: as §1

E. Coli 08032813 = experiment: MIC, two-fold broth microdilution; type: cell-based; conditions: Escherichia coli, 18 h, read-out: MIC E. Coli 08032813
Summary of the method: (§2)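 MH broth, 2-fold serial peptide dilution; inoculum 10^6 CFU/mL before equal-volume mixing. 37 °C, 18 h, gentle shaking, A595 read. MIC = no-growth endpoint, mean of 3 independent runs.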

[9] = tested on: Staphylococcus epidermidis; experiment: MIC, two-fold broth microdilution; type: cell-based; conditions: Staphylococcus epidermidis, 18 h, read-out: MIC Staphylococcus epidermidis
Summary of the method: as §2

Vibrio Parahaemolyticus = experiment: MIC, two-fold broth microdilution; type: cell-based; conditions: Vibrio parahaemolyticus, 18 h, read-out: MIC Vibrio Parahaemolyticus
Summary of the method: as §2

08030209 = experiment: microbe, parasite or virus in culture; type: cell-based, Arcyria cinerea; conditions: Arcyria cinerea, 18 h, read-out: MIC Arcyria cinerea 08030209
Description: as §1

E. coli 08040726 [10] = experiment: Bacterial killing kinetic assay, colony counting; type: cell-based
Description: The bacterial killing kinetics of the hybrid peptides against E. coli 08040726 was determined by counting the changes in the viable bacterial clones after peptide treatment. The experiment was carried out according to the method described previously with minor modifications. Fresh colonies of the bacteria were incubated in MH broth at 37 °C for 12 h and diluted to 10^6 CFU/in fresh MH broth. The hybrid peptide was added to the bacterial suspension with a final concentration of 1x and 5x corresponding MICs, and incubated at 37 °C for 0, 10, 20, 30, 45, 60, 90, 120, and 180 mins. At each time point, aliquots (50 μL) were removed and diluted with fresh MH broth for 1000 times. […] of the dilutions were coated on MH agar plates, incubated overnight at 37 °C, and the viable colonies were counted. Ampicillin was used as positive control and sterile deionized water was used as negative control.

## CC1(C)S[C@@H]2[C@H](NC(=O)[C@H](N)c3ccccc3)C(=O)N2[C@H]1C(=O)O [Ampicillin, reference compound]
E. coli 08040726 [1]
  MIC E. coli 08040726: 9.38 µg/mL (≈ 26.8 µM)
E. coli 08040726 [1]; listed as ampicillin
  MIC E. coli 08040726: 0.12 µg/mL (≈ 0.343 µM)
E. coli 08040726 [2]
  MIC E. Coli 08040726 (second line with this strain number): — (no detectable activity in MIC assay in dose of 200 µg/mL or in trypsin inhibition assay at concentration of 160 μg/mL)
Aeromonas sobria
  MIC: > 200 µg/mL
Aeromonas veronii
  MIC: > 200 µg/mL
[3]
  MIC: 75 µg/mL (≈ 215 µM)
[4]
  MIC: 18.8 µg/mL (≈ 53.7 µM)
Candida glabrata 08A802
  MIC: 18.8 µg/mL (≈ 53.7 µM)
E. Coli 08032823
  MIC: > 200 µg/mL
Edwardsiella tarda
  MIC: > 200 µg/mL
[5]
  MIC: > 200 µg/mL
[6]
  MIC: 4.69 µg/mL (≈ 13.4 µM)
K. Pneumoniae 08031012
  MIC: > 200 µg/mL
K. Pneumoniae 08040202
  MIC: > 200 µg/mL
[7]
  MIC: > 200 µg/mL
P. Aeruginosa 08021015
  MIC: 9.38 µg/mL (≈ 26.8 µM)
Proteus mirabilis 1376
  MIC: 75 µg/mL (≈ 215 µM)
S. Aureus 08032615
  MIC: 9.38 µg/mL (≈ 26.8 µM)
S. Aureus 08032706
  MIC: 18.8 µg/mL (≈ 53.7 µM)
S. Aureus 08032810
  MIC: > 200 µg/mL
S. Maltophilia 090223
  MIC: > 200 µg/mL
[8]
  MIC: 75 µg/mL (≈ 215 µM)
Vibrio brasiiensis
  MIC: > 200 µg/mL
Vibrio cholerae
  MIC: > 200 µg/mL
Vibrio harveyi
  MIC: 37.5 µg/mL (≈ 107 µM)
E. Coli 08032813
  MIC: > 200 µg/mL
[9]
  MIC: > 200 µg/mL
Vibrio Parahaemolyticus
  MIC: 18.8 µg/mL (≈ 53.7 µM)
08030209
  MIC: > 200 µg/mL
E. coli 08040726 [10]; 1xMIC
  time of killing toward E. coli: 6 h
E. coli 08040726 [10]; 5xMIC
  time of killing toward E. coli: 3 h
